In US20230227427A1, “IL-17A MODULATORS” (SANOFI, priority 2010, published 2023):

What follows are compounds tested against T1, human recombinant IL-17A (Homo sapiens, UniProt Q16552) (assay: IL-17A AlphaLISA assay (block binding of IL-17A to its receptor IL-17RA)). Conditions: compounds pre-incubated with the IL-17A for 24 h at room temperature; read-out: AlphaLISA pIC50 (converted).
T1 construct: purchased R&D Systems 7955-IL/CF
T1 sequence (Q16552 24-155): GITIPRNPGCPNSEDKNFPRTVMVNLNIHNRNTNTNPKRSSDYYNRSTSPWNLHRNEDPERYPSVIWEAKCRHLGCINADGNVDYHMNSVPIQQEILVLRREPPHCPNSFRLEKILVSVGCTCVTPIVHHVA
Summary of the method: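 PBS with 0.05% Tween-20 and 0.1% BSA. IL-17A stock 7.5 nM, IL-17RA/Fc stock 5 nM; compound–cytokine pre-incubation 24 h at RT, or 30 min where marked, then 90 min with receptor. pIC50 from 4-parameter logistic AlphaLISA signal, normalised to DMSO and 6 μM reference inhibitor.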

Row | IC50 [nM] | Structure (SMILES)
1 | 100 | Cc1cc(-c2ccc(NC(=O)[C@@H](NC(=O)c3ccnn3C)C(c3ccccc3)c3ccccc3)cc2F)c(C)cn1 [Example 56, (S)—N-(1-((4-(2,5-dimethylpyridin-4-yl)-3-fluorophenyl)amino)-1-oxo-3,3-diphenylpropan-2-yl)-1-methyl-1H-pyrazole-5-carboxamide]
2 | 126 | Cc1nccc(-c2ccc(NC(=O)[C@@H](NC(=O)c3ccnn3C)C(c3ccccc3)c3ccccc3)cc2F)c1C [Example 57, (S)—N-(1-((4-(2,3-dimethylpyridin-4-yl)-3-fluorophenyl)amino)-1-oxo-3,3-diphenylpropan-2-yl)-1-methyl-1H-pyrazole-5-carboxamide]
3 | 316 | Cn1nccc1C(=O)N[C@H](C(=O)Nc1ccc(-c2ccc(=O)[nH]n2)c(F)c1)C(c1ccccc1)c1ccccc1 [Example 58, (S)—N-(1-((3-fluoro-4-(6-oxo-1,6-dihydropyridazin-3-yl)phenyl)amino)-1-oxo-3,3-diphenylpropan-2-yl)-1-methyl-1H-pyrazole-5-carboxamide]
4 | 100 | CCn1nccc1C(=O)N[C@H](C(=O)Nc1ccc(-c2c[nH]nc2C)c(F)c1)C(c1ccccc1)c1ccccc1 [Example 59, (S)-1-ethyl-N-(1-((3-fluoro-4-(3-methyl-1H-pyrazol-4-yl)phenyl)amino)-1-oxo-3,3-diphenylpropan-2-yl)-1H-pyrazole-5-carboxamide]
5 | 39.8 | Cc1noc(C)c1-c1ccc(NC(=O)[C@@H](NC(=O)c2ccnn2C)C(c2ccccc2)c2ccccc2)cc1F [Example 60, (S)—N-(1-((4-(3,5-dimethylisoxazol-4-yl)-3-fluorophenyl)amino)-1-oxo-3,3-diphenylpropan-2-yl)-1-methyl-1H-pyrazole-5-carboxamide]
6 | 39.8 | CCn1nccc1C(=O)N[C@H](C(=O)Nc1ccc(-c2c(C)noc2C)c(F)c1)C(c1ccccc1)c1ccccc1 [Example 61, (S)—N-(1-((4-(3,5-dimethylisoxazol-4-yl)-3-fluorophenyl)amino)-1-oxo-3,3-diphenylpropan-2-yl)-1-ethyl-1H-pyrazole-5-carboxamide]
7 | 794 | Cn1nccc1C(=O)N[C@H](C(=O)Nc1ccc(-c2cn[nH]c2)c(F)c1)C(c1ccccc1)c1ccccc1 [Example 62, (S)—N-(1-((3-fluoro-4-(1H-pyrazol-4-yl)phenyl)amino)-1-oxo-3,3-diphenylpropan-2-yl)-1-methyl-1H-pyrazole-5-carboxamide]
8 | 158 | Cn1nccc1C(=O)N[C@H](C(=O)Nc1ccc(-c2cnc(=O)n(C)c2)c(F)c1)C(c1ccccc1)c1ccccc1 [Example 63, (S)—N-(1-((3-fluoro-4-(1-methyl-2-oxo-1,2-dihydropyrimidin-5-yl)phenyl)amino)-1-oxo-3,3-diphenylpropan-2-yl)-1-methyl-1H-pyrazole-5-carboxamide]
9 | 398 | Cn1nccc1C(=O)N[C@H](C(=O)Nc1ccc(-c2cnc(=O)[nH]c2)c(F)c1)C(c1ccccc1)c1ccccc1 [Example 64, (S)—N-(1-((3-fluoro-4-(2-oxo-1,2-dihydropyrimidin-5-yl)phenyl)amino)-1-oxo-3,3-diphenylpropan-2-yl)-1-methyl-1H-pyrazole-5-carboxamide]
10 | 50.1 | Cc1n[nH]cc1-c1ccc(NC(=O)[C@@H](NC(=O)c2ccnn2C)C(c2ccccc2)c2ccccc2)cc1F [Example 65, (S)—N-(1-((3-fluoro-4-(3-methyl-1H-pyrazol-4-yl)phenyl)amino)-1-oxo-3,3-diphenylpropan-2-yl)-1-methyl-1H-pyrazole-5-carboxamide]
11 | 25.1 | Cn1nccc1C(=O)N[C@H](C(=O)Nc1ccc(-c2c[nH]c(=O)c3cccnc23)c(F)c1)C(c1ccccc1)c1ccccc1 [Example 66, (S)—N-(1-((3-fluoro-4-(5-oxo-5,6-dihydro-1,6-naphthyridin-8-yl)phenyl)amino)-1-oxo-3,3-diphenylpropan-2-yl)-1-methyl-1H-pyrazole-5-carboxamide]
12 | 398 | CCn1nccc1C(=O)N[C@H](C(=O)Nc1ccc(-c2cn[nH]c(=O)c2)c(F)c1)C(c1ccccc1)c1ccccc1 [Example 67, (S)-1-ethyl-N-(1-((3-fluoro-4-(6-oxo-1,6-dihydropyridazin-4-yl)phenyl)amino)-1-oxo-3,3-diphenylpropan-2-yl)-1H-pyrazole-5-carboxamide]
13 | 7.94 | Cn1nccc1C(=O)N[C@H](C(=O)Nc1ccc(-c2c[nH]c(=O)c3[nH]ccc23)c(F)c1)C(c1ccccc1)c1ccccc1 [Example 68, (S)—N-(1-((3-fluoro-4-(7-oxo-6,7-dihydro-1H-pyrrolo[2,3-c]pyridin-4-yl)phenyl)amino)-1-oxo-3,3-diphenylpropan-2-yl)-1-methyl-1H-pyrazole-5-carboxamide]
14 | 79.4 | Cn1nccc1C(=O)N[C@H](C(=O)Nc1ccc(-c2c[nH]c(=O)c3[nH]cnc23)c(F)c1)C(c1ccccc1)c1ccccc1 [Example 69, (S)—N-(1-((3-fluoro-4-(4-oxo-4,5-dihydro-3H-imidazo[4,5-c]pyridin-7-yl)phenyl)amino)-1-oxo-3,3-diphenylpropan-2-yl)-1-methyl-1H-pyrazole-5-carboxamide]
15 | 316 | Cn1nccc1C(=O)N[C@H](C(=O)Nc1ccc(-c2cn[nH]c(=O)c2)c(F)c1)C(c1ccccc1)c1ccccc1 [Example 70, (S)—N-(1-((3-fluoro-4-(6-oxo-1,6-dihydropyridazin-4-yl)phenyl)amino)-1-oxo-3,3-diphenylpropan-2-yl)-1-methyl-1H-pyrazole-5-carboxamide]
16 | 15.8 | Cn1nccc1C(=O)N[C@H](C(=O)Nc1ccc(-c2cccc(=O)n2C)c(F)c1)C(c1ccccc1)c1ccccc1 [Example 71, (S)—N-(1-((3-fluoro-4-(1-methyl-6-oxo-1,6-dihydropyridin-2-yl)phenyl)amino)-1-oxo-3,3-diphenylpropan-2-yl)-1-methyl-1H-pyrazole-5-carboxamide]
17 | 79.4 | Cc1c(-c2ccc(NC(=O)[C@@H](NC(=O)c3ccnn3C)C(c3ccccc3)c3ccccc3)nc2)ccc(=O)n1C [Example 72, (S)—N-(1-((1′,2′-dimethyl-6′-oxo-1′,6′-dihydro-[3,3′-bipyridin]-6-yl)amino)-1-oxo-3,3-diphenylpropan-2-yl)-1-methyl-1H-pyrazole-5-carboxamide]
18 | 25.1 | Cc1cncc(C)c1-c1ccc(NC(=O)[C@@H](NC(=O)c2ccnn2C)C(c2ccccc2)c2ccccc2)nc1 [Example 73, (S)—N-(1-((3′,5′-dimethyl-[3,4′-bipyridin]-6-yl)amino)-1-oxo-3,3-diphenylpropan-2-yl)-1-methyl-1H-pyrazole-5-carboxamide]
19 | 31.6 | Cc1[nH]ncc1-c1ccc(NC(=O)[C@@H](NC(=O)c2ccnn2C)C(c2ccccc2)c2ccccc2)cc1 [Example 74, (S)-1-methyl-N-(1-((4-(5-methyl-1H-pyrazol-4-yl)phenyl)amino)-1-oxo-3,3-diphenylpropan-2-yl)-1H-pyrazole-5-carboxamide]
20 | 31.6 | Cn1nccc1C(=O)N[C@H](C(=O)Nc1ccc(-c2cn(C)c(=O)c3[nH]ncc23)c(F)c1)C(c1ccccc1)c1ccccc1 [Example 75, (S)—N-(1-((3-fluoro-4-(6-methyl-7-oxo-6,7-dihydro-1H-pyrazolo[3,4-c]pyridin-4-yl)phenyl)amino)-1-oxo-3,3-diphenylpropan-2-yl)-1-methyl-1H-pyrazole-5-carboxamide]
21 | 631 | COc1ncc(-c2ccc(NC(=O)[C@@H](NC(=O)c3ccnn3C)C(c3ccccc3)c3ccccc3)cc2)c2cc[nH]c12 [Example 76, (S)—N-(1-((4-(7-methoxy-1H-pyrrolo[2,3-c]pyridin-4-yl)phenyl)amino)-1-oxo-3,3-diphenylpropan-2-yl)-1-methyl-1H-pyrazole-5-carboxamide]
22 | 126 | Cn1nccc1C(=O)N[C@H](C(=O)Nc1ccc(-c2cccc(=O)[nH]2)c(F)c1)C(c1ccccc1)c1ccccc1 [Example 77, (S)—N-(1-((3-fluoro-4-(6-oxo-1,6-dihydropyridin-2-yl)phenyl)amino)-1-oxo-3,3-diphenylpropan-2-yl)-1-methyl-1H-pyrazole-5-carboxamide]
23 | 25.1 | Cn1nccc1C(=O)N[C@H](C(=O)Nc1ccc(-c2ccncc2CC(=O)N2CCCC2)cc1)C(c1ccccc1)c1ccccc1 [Example 78, (S)-1-methyl-N-(1-oxo-1-((4-(3-(2-oxo-2-(pyrrolidin-1-yl)ethyl)pyridin-4-yl)phenyl)amino)-3,3-diphenylpropan-2-yl)-1H-pyrazole-5-carboxamide]
24 | 251 | Cn1nccc1C(=O)N[C@H](C(=O)Nc1ccc(-c2cc[n+]([O-])cc2CC(=O)N2CCCC2)cc1)C(c1ccccc1)c1ccccc1 [Example 79, (S)-4-(4-(2-(1-methyl-1H-pyrazole-5-carboxamido)-3,3-diphenylpropanamido)phenyl)-3-(2-oxo-2-(pyrrolidin-1-yl)ethyl)pyridine 1-oxide]
25 | 316 | Cn1nccc1C(=O)N[C@H](C(=O)Nc1ccc(-c2cc(=O)[nH]cn2)c(F)c1)C(c1ccccc1)c1ccccc1 [Example 80, (S)—N-(1-((3-fluoro-4-(6-oxo-1,6-dihydropyrimidin-4-yl)phenyl)amino)-1-oxo-3,3-diphenylpropan-2-yl)-1-methyl-1H-pyrazole-5-carboxamide]
26 | 12.6 | Cn1nccc1C(=O)N[C@H](C(=O)Nc1ccc(C2=CCOCC2)cc1)C(c1ccccc1)c1ccccc1 [Example 81, (S)—N-(1-((4-(3,6-dihydro-2H-pyran-4-yl)phenyl)amino)-1-oxo-3,3-diphenylpropan-2-yl)-1-methyl-1H-pyrazole-5-carboxamide]
27 | 25.1 | COc1cnccc1-c1ccc(NC(=O)C(NC(=O)c2ccnn2C)C2c3ccccc3-c3ccccc32)cc1 (stereo not drawn) [Example 82, N-(1-(9H-fluoren-9-yl)-2-((4-(3-methoxypyridin-4-yl)phenyl)amino)-2-oxoethyl)-1-methyl-1H-pyrazole-5-carboxamide]
